Assay results as given in patent US9820487B2, “Abscinazole” (NATIONAL UNIVERSITY CORPORATION SHIZUOKA UNIVERSITY, priority 2014, dated 2017).

Experiments:
[1] = tested on: thale cress (Arabidopsis thaliaria, Col-0); assay: Thale cress growth test (survival after dry treatment); format: in vivo
Description: Five plant bodies of 2-week old thale cress (Arabidopsis thaliaria, Col-0) grown in Gelzan medium (containing MS medium mixed salts and 1% sucrose) were transplanted to a 200 mL-plastic pot containing a culture soil obtained by mixing vermiculite and premix in 1:1 and grown at 22° C. for 2 weeks under the condition of 16 hour light period—8 hour dark period. At this stage, the moisture content was adjusted so that the mass of the pot containing the plant and the culture soil was to be about 150 g. 50 ml, of a 50 μM aqueous solution of the (−) form of Example 1 (containing 0.05% Tween-20 and 0.2% MeOH) was sprayed to the above-ground part on 27 pots (135 seedlings of thale cress in total) once a day for 3 days. The pots on which above-ground part were sprayed with 50 mL of an aqueous solution free from the above compound (containing 0.05% Tween-20 and 0.2% MeOH) once a day for 3 days were used as controls. The pots were dry-treated for 12 days and subsequently watered, and the number of plant bodies survived 3 days later was counted, from which the survival rate was calculated in accordance with the following formula (5).
Survival rate (%)=Number of plant bodies survived (piece)/Total number of plant bodies (piece)×100 . . .(5)

[2] = tested on: seeds of thale cress (Arabidopsis thaliana, Col-0); assay: Thale cress seed germination inhibition test (2); format: in vivo; settings: 120 hours after seed plantation (FIG. 3)
Description: Seeds of thale cress (Arabidopsis thaliana, Col-0) were immersed in […] an aqueous solution of 70% ethanol for 30 minutes, subsequently in 500 μL of 100% ethanol for 1 minute, washed three times in 1 mL of distilled water, then immersed in distilled water and, in a dark place, verbalized at 4° C. for 3 days. A solution of the sample in methanol and a solution of ABA in methanol were put in a 1.5 mL microtube, and methanol was removed therefrom under reduced pressure. An aqueous solution of 0.5% agar (containing 1/2 MS medium inorganic salts) at 70° C. was added thereto, followed by stirring the resultant. The obtained solution was placed in a 96-well plate to provide the medium containing the sample. 20 to 30 vernalized seeds of thale cress were planted in each well and cultured at 22° C. under continuous light to monitor the number of seeds germinated over time. The germination rate was calculated in accordance with the following formula (1). Note that the medium prepared using methanol in the same manner as above was used as an untreated control and a germination rate of 100% was achieved 72 hours later from the seed plantation. Germination rates 72 hours later from the seed plantation are shown in FIG. 1 and initial growth conditions of thale cress 120 hours later are shown in FIG. 2.
Germination rate (%)=Number of seeds germinated/Number of seeds planted×100 . . . (1) […]

[3] = target: T1, ent-kaurene oxidase CYP701A6 (Oryza sativa subsp. japonica, UniProt Q5Z5R4); assay: Ent-kaurene oxidase CYP701A6 inhibition test; format: biochemical; settings: CYP701A6 + NADPH-P450 reductase ATR2, substrate ent-kaurene, 30° C. 30 minutes; IC50 calculated from two concentrations
T1 sequence (Q5Z5R4 1-505): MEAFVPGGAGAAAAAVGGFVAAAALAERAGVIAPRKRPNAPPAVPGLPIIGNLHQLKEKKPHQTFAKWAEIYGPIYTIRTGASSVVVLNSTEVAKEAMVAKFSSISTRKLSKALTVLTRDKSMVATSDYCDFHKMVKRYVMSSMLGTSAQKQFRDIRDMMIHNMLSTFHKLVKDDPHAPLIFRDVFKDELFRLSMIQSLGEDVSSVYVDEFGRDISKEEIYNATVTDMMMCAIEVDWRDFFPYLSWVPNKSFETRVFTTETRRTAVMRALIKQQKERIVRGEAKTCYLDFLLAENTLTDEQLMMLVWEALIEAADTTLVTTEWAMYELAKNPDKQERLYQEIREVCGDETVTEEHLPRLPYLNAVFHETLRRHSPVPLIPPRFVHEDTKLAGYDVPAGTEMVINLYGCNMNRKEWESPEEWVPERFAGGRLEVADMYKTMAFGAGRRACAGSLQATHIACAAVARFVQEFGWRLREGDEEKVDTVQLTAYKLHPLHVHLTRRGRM
Description: To a 1.5 mL microtube, 8 μL of an aqueous solution of 500 μM ent-kaurene as a substrate in 45% cyclodextrin and 8μL of a solution of the sample in dimethylformamide were put. 10 μL of 2.32 μM ent-kaurene oxidase CYP701A6 and 10 μL of 4.6 unit/mL NADPH-P450 reductase ATR2, heated at 30° C. for 5 minutes in advance, were added thereto. 304 μL of ultra-pure water, 40 μL of 500 mM KPB and 20 μL of an aqueous solution of 20 mM NADPH, heated at 30° C. for 10 minutes in advance, were added thereto thereby starting the enzyme reaction. The reaction was carried out at 30° C. for 30 minutes at a rotation speed of 1000 rpm and 100 μL of 1 M hydrochloric acid was added thereto thereby terminating the reaction. 5 μL of 10 μM abietic acid as the internal standard was added thereto, and the solution was extracted with 400 μL of ethyl acetate. The resultant was dried over sodium sulfate and subsequently concentrated under reduced pressure. 50 μL of methanol and 5 μL of 2 M trimethyl silyldiazomethane were added thereto to methylate carboxylic acid and the resultant was thy-solidified using nitrogen. The solidified product was dissolved in 150 μL of hexane and 1 μL of the resultant solution was subjected to a GC-MS analysis to detect the enzyme metabolite ent-kaurene acid. The CYP701A6 inhibition rate of the samples was calculated in accordance with the following formula (4). Note that the peak area of ent-kaurene acid was calculated from the peak area of m/z 273 and that ent-kaurene acid was identified from the area ratio of m/z 257, 213. The peak area of abietic acid was calculated from the area of m/z 256, and abietic acid was identified from the area ratio of m/z 316. Note that dimethylformamide was used for the control in place of the sample solution. Each sample was tested with two different concentrations to act late the 50% inhibition concentration (IC50) based on the enzyme inhibition rates thereof.
Enzyme inhibition rate (%)={1-(Ent-kaurene acid peak area of each sample/Abietic acid peak area of each sample/(Ent-kaurene acid peak area of control/Abietic acid peak area of control }×100 . . . (4)

potency estimated from few doses [3]: 780 nM
SMILES: COCCOCCOCCOCC#Cc1cccc(/C=C(\[C@@H](O)C(C)(C)C)n2cncn2)c1 [Example 1 (−) Form, (−)-(S)-(E)-1-(3-(2,5,8,11-tetraoxatetradec-13-yn-14-yl)phenyl)-4,4-dimethyl-2-(1H-1,2,4-triazol-1-yl)pent-1-en-3-ol]
survival rate after dry treatment ([1]; 50 μM aqueous solution sprayed once a day for 3 days, dry-treated 12 days, watered, counted 3 days later, control 15%): 75% | withering due to dryness ([1]; sprayed to thale cress, 50 μM, dry treatment 12 days): reduced | seed germination inhibition compared with (−) form of Comparative Example 1 [2]: can inhibit the seed germination even in lower concentrations
